pIC50: −log10 of the molar value. Where a name gives a salt, the structure may show the parent alone. Read-outs that look alike come from different tables or passages of the source.
Columns and labels:
[1] = target: T1, Amyloid-beta(1-42) oligomer binding to purified human brain membranes (Homo sapiens, UniProt P05067); test: Inhibition of Amyloid-beta(1-42) oligomer binding to purified human brain cell membranes (ELISA); details: Abeta(1-42) oligomers, read-out: Abeta42/Membrane Activity (IC-50)
T1 construct: Beta-amyloid (1-42) was purchased from rPeptide (Cat. No. A1163); purchased rPeptide A1163
Experimental: (§1) Purified human brain cell membranes were prepared by differential centrifugation as follows. Five grams of frozen human brain postmortem tissue (obtained from University of Kentucky Alzheimer's Disease Center Tissue Bank) was homogenized in 50 ml HEPES-Buffered sucrose (0.32M sucrose, 4 mM HEPES pH7.4, protease inhibitors) with a motor driven glass-teflon homogenizer. After removing nuclear and cell debris by centrifugation of homogenates at 1,000×g for 10 min at 4 degree Celsius, post-nuclear supernatant was centrifuged at 100,000×g for 30 minutes to yield the crude membrane pellet. Crude membrane pellet was re-suspended in 0.32M sucrose, then centrifuged again at 100,000×g for 30 minutes to yield washed membrane pellet. Membrane pellet was resuspended in sterile PBS (pH7.4), quickly frozen, and kept in aliquots at −80 degrees Celsius. This preparation contains human brain cell membranes. Protein concentration was measured with BCA protein assay kit (Pierce Cat. No. 23227). Purified brain membranes were diluted to 0.01 mg/ml in PBS (pH 7.4) and then added to a 96 well polystyrene ELISA plate (NUNC Cat. No. 449824; 100 μl per well). Plates were incubated Over Night (ON) at 4 degrees Celsius. Following the incubation, the plate was washed consecutively, by immersion, with de-ionized water and PBS (pH 7.4). The ELISA plate was then blocked with nonfat milk (2%, 200 μl per well) for 2 hours at Room Temperature (RT). Following blocking, the plate was washed with de-ionized water then PBS (pH 7.4). GBAPs were dissolved and diluted in PBS (pH 6.5, supplemented with 0.1% BSA) at desired concentrations, added to the ELISA plates coated with brain membranes (100 μl per well) and incubated for 2 hours at RT with gentle shaking. Following incubation, the plate was washed with de-ionized water and three times with PBS (pH 6.5) plus Tween. Bound GBAP was detected by a monoclonal antibody specific for that GBAP, followed by incubation with secondary antibody conjugated to horseradish peroxidase (HRP). Antibody was diluted in PBS (pH6.5 supplemented with 1% BSA). Following each incubation with antibody, the plate was washed with de-ionized water and three times with PBS (pH6.5) wash buffer containing 0.1% Tween. The peroxidase substrate chromogen, TMB (Dako Cat. No. S1599) was added (100 μl per well) to the ELISA plate and incubated at room temperature. After 5 minutes ELISA Stop Solution (hydrochloric acid 1N, sulfuric acid 3N) was added (100 μl per well) to stop the peroxidase catalyzed colorimetric reaction. The Optical Density of the samples was measured at 450 nm using an ELISA plate reader (BioTek Synergy H1). Following color development, the % inhibition compared to control was determined. IC-50s were calculated using GraphPad Prism software.
(§2) The assay was performed as described in Example 49, with the following modifications. Following to coating the plates with purified human brain cell membranes, plates were washed as described. The compounds were dissolved in DMSO at 10 mM final concentration and further diluted prior to assay. DMSO concentration in the screening well was up to 2%. Individual compounds were co-incubated with Beta-amyloid peptides on plates coated with purified human brain membranes. Beta-amyloid (1-42) oligomers were prepared as described in Example 2. Beta-amyloid (1-40) from rPeptide (Cat No. A1153) was dissolved in DMSO, quickly frozen and kept in aliquots at −80 degrees Celsius. Beta-amyloid (1-42) oligomers or Beta-amyloid (1-40) dissolved in PBS (pH 6.5, supplemented with BSA, 0.1%) were added to the ELISA plate (100 μl per well) and incubated for 2 hours at RT with gentle shaking. Following the incubation, the plate was washed with de-ionized water and three times with PBS (pH 6.5) plus Tween. […]

[2] = target: Tau binding to purified human brain membranes (Homo sapiens, UniProt P10636); test: Inhibition of Tau binding to purified human brain cell membranes (ELISA)
Experimental: as §1
The assay was performed as described in Example 49, with the following modifications.
Following to coating the plates with purified human brain cell membranes, plates were washed as described. The compounds were dissolved in DMSO at 10 mM final concentration and further diluted prior to assay. DMSO concentration in the screening well was up to 2%. Individual compounds were co-incubated with Tau on plates coated with purified human brain membranes. Tau purchased from rPeptide (Cat. No. T1001) was dissolved in DMSO (Sigma Cat. No. D2650), quickly frozen and kept in aliquots at −80 degrees Celsius. Tau dissolved in PBS (pH 6.5, supplemented with BSA, 0.1%) was added to the ELISA plate (100 μl per well) and incubated for 2 hours at RT with gentle shaking. Following the incubation, the plate was washed with de-ionized water and three times with PBS (pH 6.5) plus Tween. Bound Tau was detected by anti-Tau Monoclonal Antibody D-8 (Santa Cruz Cat. No. sc-166060), followed by secondary anti-IgG antibody conjugated to HRP (R&D System, Cat. No. HAF007). Following to color development with TMB, as described in Example 49, the Optical Density of the samples was measured at 450 nm using an ELISA plate reader. […]

[3] = target: T2, Amyloid-beta(1-40) binding to purified human brain membranes (Homo sapiens, UniProt P05067); test: Inhibition of Amyloid-beta(1-40) binding to purified human brain cell membranes (ELISA); details: Abeta(1-40), read-out: Abeta40/Membrane Activity (IC-50)
T2 construct: Beta-amyloid (1-40) from rPeptide (Cat No. A1153) was dissolved in DMSO; purchased rPeptide A1153
Experimental: as §1, §2

[4] = Tau, purified human brain membranes, read-out: Tau/Membrane Activity (IC-50)

Tau binding to purified human brain membranes, sequence (P10636 with tags, fused parts or gaps): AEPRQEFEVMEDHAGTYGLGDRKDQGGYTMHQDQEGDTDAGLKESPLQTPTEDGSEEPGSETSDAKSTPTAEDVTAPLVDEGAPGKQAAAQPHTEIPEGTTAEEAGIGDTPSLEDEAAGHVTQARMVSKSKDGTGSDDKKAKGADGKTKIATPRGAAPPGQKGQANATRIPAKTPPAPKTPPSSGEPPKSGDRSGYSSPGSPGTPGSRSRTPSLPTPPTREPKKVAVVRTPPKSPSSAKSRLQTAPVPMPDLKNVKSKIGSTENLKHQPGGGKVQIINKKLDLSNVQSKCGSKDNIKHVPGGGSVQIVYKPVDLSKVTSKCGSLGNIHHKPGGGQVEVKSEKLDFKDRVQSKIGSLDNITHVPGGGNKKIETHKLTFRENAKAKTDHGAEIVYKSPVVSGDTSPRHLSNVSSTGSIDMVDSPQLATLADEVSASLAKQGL
T2 sequence (P05067 672-711): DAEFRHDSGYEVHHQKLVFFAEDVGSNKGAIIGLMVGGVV
T1 sequence (P05067 672-713): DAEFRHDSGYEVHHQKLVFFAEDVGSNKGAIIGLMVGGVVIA

Row | Compound | pIC50 [1] | pIC50 [2] | pIC50 [3] | pIC50 [2, 4]
1 | C/C(=N\Nc1ncnc2cc(Cl)ccc12)c1ccc(-n2cnc(C)c2C)nc1 [Compound 16, 7-chloro-4-(2-(1-(6-(4,5-dimethyl-1H-imidazol-1-yl)pyridin-3-yl)ethylidene)hydrazineyl)quinazoline phosphate] | 5.48 | 5.02 | 5.54 | 
2 | Clc1ccc2c(N/N=C/c3ccc(-n4ccnc4)cc3)ccnc2c1 [Compound 38, 4-(2-(4-(1H-imidazol-1-yl)benzylidene)hydrazineyl)-7-chloroquinoline dihydrochloride] | 5.34 | 5.31 | 6.44 | 
3 | Cc1cc(-n2ccnc2)ccc1/C=N/Nc1ccnc2cc(Cl)ccc12 [Compound 1, (E)-4-((E)-(4-(1H-imidazol-1-yl)-2-methylbenzylidene)hydrazono)-7-chloro-1,4-dihydroquinoline] | 5.53 |  |  | 6.31
4 | C/C(=N\Nc1nncc2cc(Cl)ccc12)c1ccc(-n2cc(C)nc2C)nc1 [Compound 24, (E)-6-chloro-1-(2-(1-(6-(2,4-dimethyl-1H-imidazol-1-yl)pyridin-3-yl)ethylidene)hydrazineyl)phthalazine] | 5.18 |  | 4.61 | 5.59
5 | Clc1ccc2c(N/N=C/c3ccc(-n4ccnc4)nc3)ccnc2c1 [Compound 14, (E)-4-(2-((6-(1H-imidazol-1-yl)pyridin-3-yl)methylene)hydrazineyl)-7-chloroquinoline hydrochloride] | 5.22 | 5.73 | 4.74 | 
6 | Clc1ccc2c(N/N=C/c3ccc(-n4cccn4)cc3)ccnc2c1 [Compound 3, (E)-4-((E)-(4-(1H-pyrazol-1-yl)benzylidene)hydrazono)-7-chloro-1,4-dihydroquinoline] | 4.94 | 5.05 |  | 

— patent publication US20240398783A1, “Compounds and Pharmaceutical Compositions Comprising Inhibitors of Amyloid Peptide Interactions with Glycosaminoglycans, Methods of Treatment and Use Thereof” (Gismo Therapeutics, Inc., priority 2021, published 2024)
